The values that follow are results of earlier work, collected in patent US7652024B2, “Acylated spiropiperidine derivatives as melanocortin-4 receptor modulators” (Merck Sharp & Dohme Corp., priority 2005, dated 2010).

The test system of this data set is erectile dysfunction patients.

`CCCc1nn(C)c2c(=O)[nH]c(-c3cc(S(=O)(=O)N4CCN(C)CC4)ccc3OCC)nc12` [Sildenafil, sildenafil]: the “effective in share of patients” value was “about 70%”.
